The structures appear in SMILES notation.

Series [1] can be described thus: In vitro metabolic stability in human intestine S9. It counts as in vitro ADME. The following applies: human; 37° C., 10 μM compound, 1 mg/mL S9, NADPH regeneration system; read-out: Human intestine S9 T1/2. The procedure: (§1) This example detects the metabolic stability of the compounds of the present disclosure in human (rat) plasma and intestinal S9 in vitro. In a human (rat) plasma reaction system, 990 μl of human (rat) plasma was taken and incubated at 37° C. for 5 minutes, and 10 μl of the compound mother liquor was used to initiate the reaction. In the human (rat) intestinal S9 stability experiment, in the order shown in Table 2 below, the samples were added and incubated in a 37° C. water bath to initiate the reaction, each sample performed in triplicates. Respectively, at 1 minute, 2 minutes, 5 minutes, 15 minutes, 30 minutes after the reaction began, 100 μL of each was taken and added to a centrifuge tube containing 400 μL of 0° C. precooled internal standard working solution. The reaction was terminated, vortexed and mixed for 1 minute, centrifuged at 10000×g for 10 minutes in a 4° C. precooled high-speed centrifuge, and the supernatant was detected with HPLC. The test results were used to calculate metabolic half-life using WinNonlin (version 6.2 Pharsight, Mountain View, Calif.) with a non-compartmental model.
(§2) Compound stock solution concentration: 1 mM
(§3) Reaction matrix: human (rat) plasma, intestinal S9 purchased from Research Institute for Liver Diseases (Shanghai) Co., Ltd.

The nature of series [2]: In vitro metabolic stability in human plasma. It counts as in vitro ADME. As to conditions: human, plasma, 37° C., 10 μM compound, read-out: Human plasma T1/2. The procedure: as §1, §2, §3
Series [3] is described as follows: In vitro metabolic stability in rat plasma. It is filed as in vitro ADME. As to conditions: rat, plasma, 37° C., 10 μM compound, read-out: Rat plasma T1/2. The procedure:
as §1, §2, §3

Series [4] is described as follows: In vitro metabolic stability in rat intestine S9. It is filed as in vitro ADME. As to conditions: rat, pH 7.4; 37° C., 10 μM compound, 1 mg/mL S9, NADPH regeneration system; read-out: Rat intestine S9 T1/2. The procedure:
as §1, §2, §3

The subject of series [5] is Candida albicans ATCC10231. Nature of the series: Systemic fungal infection in mice, intragastric administration. It is filed as in vivo, ICR mice. The following applies: Candida albicans, ATCC10231, po. The procedure: (§4) ICR mice, weighing 18-22 g, male, provided by Hubei Experimental Animal Center.
Prior to the experiment, a small amount of Candida albicans was picked from an SDA medium kept at 4° C. with an inoculation loop and inoculated into 1 ml YPD culture medium, cultured at 30° C. with 200 rpm shaking and activated for 16 hours, so that the fungus was in the late stage of exponential growth. Counted with a hemocytometer and the fungal solution concentration was adjusted to 1×10^3 to 5×10^3 CFU/ml with RPMI1640 medium. Monoclonal Candida albicans on SDA plate was picked up, inoculated into 1 ml YPD (Yeast Extract Peptone Dextrose Medium, the same below) culture medium, cultured at 35° C., 200 rpm for 16 hours until late exponential growth phase. Candida albicans was inoculated into fresh medium for culturing for 6 hours at 1%, centrifuged at 1000×g for 5 minutes, washed with physiological saline three times until the supernatant was colorless, counted with a hemocytometer, and the cell concentration was adjusted to 5×10^6 cells/ml. A tail vein injection of 0.1 ml/10 g caused a systemic fungal infection in mice. […] A total of 7 days of observations were performed. All dead mice were burned with ethanol.

Series [6] in a line: Determination of solubility in deionized water (HPLC, external standard). As to conditions: 25 °C, water, thermodynamic from solid.
The test system of series [7] is Candida albicans ATCC10231. As to the kind of experiment: Systemic fungal infection in mice, intravenous administration. It counts as in vivo, ICR mice. The procedure:
as §4
Prior to the experiment, a small amount of Candida albicans was picked from an SDA (sacharomyces agar, the same below) medium kept at 4° C. with an inoculation loop and inoculated into 1 ml YPD (Yeast Extract Peptone Dextrose Medium) culture medium, cultured at 30° C. with 200 rpm shaking and activated for 16 hours, so that the fungus was in the late stage of exponential growth. Counted with a hemocytometer and the fungal solution concentration was adjusted to 1×10^3-5×10^3 CFU/ml with RPMI1640 medium (Roswell Park Memorial Institute 1640, the same below). Monoclonal Candida albicans on SDA plate was picked up, inoculated into 1 ml YPD (Yeast Extract Peptone Dextrose Medium, the same below) culture medium, cultured at 35° C., 200 rpm for 16 hours until late exponential growth phase. Candida albicans was inoculated into fresh medium for culturing for 6 hours at 1%, centrifuged at 1000×g for 5 minutes, washed with physiological saline three times until the supernatant was colorless, counted with a hemocytometer, and the cell concentration was adjusted to 5×10^6 cells/ml. A tail vein injection of 0.1 ml/10 g caused a systemic fungal infection in mice. […] A total of 7 days of observations were performed. All dead mice were burned with ethanol.

The mark [8] stands for this setting: 24 h, read-out: survival rate of mice, day 1, 20 mg/kg intragastric once daily for 5 days, day 1.
The mark [9] stands for this setting: 48 h, read-out: survival rate of mice, day 2, 20 mg/kg intragastric once daily for 5 days, day 2.
[10] abbreviates: 72 h, read-out: survival rate of mice, day 3, 20 mg/kg intragastric once daily for 5 days, day 3.
Setting [11] is: 96 h, read-out: survival rate of mice, day 4, 20 mg/kg intragastric once daily for 5 days, day 4.
Setting [12] is: 120 h, read-out: survival rate of mice, day 5, 20 mg/kg intragastric once daily for 5 days, day 5.
Setting [13] is: 144 h, read-out: survival rate of mice, day 6, 20 mg/kg intragastric once daily for 5 days, day 6.
Where [14] appears, read: 168 h, read-out: survival rate of mice, day 7, 20 mg/kg intragastric once daily for 5 days, day 7.
The mark [15] stands for this setting: 24 h, read-out: survival rate of mice, day 1.
[16] abbreviates: 48 h, read-out: survival rate of mice, day 2.
[17] abbreviates: 72 h, read-out: survival rate of mice, day 3.
The mark [18] stands for this setting: 96 h, read-out: survival rate of mice, day 4.
The mark [19] stands for this setting: 120 h, read-out: survival rate of mice, day 5.
Where [20] appears, read: 144 h, read-out: survival rate of mice, day 6.
Where [21] appears, read: 168 h, read-out: survival rate of mice, day 7.

On to `CC[C@@H](C(C)OC(=O)OC(C)OC(=O)CCCCCCOP(=O)([O-])[O-])n1ncn(-c2ccc(N3CCN(c4ccc(OC[C@@H]5CO[C@@](Cn6cncn6)(c6ccc(F)cc6F)C5)cc4)CC3)cc2)c1=O.[Na+].[Na+]` (stereo partly shown) [ST0070], for which the half-life at 10 µM in series [1] was found to be 20.2 ± 8.02 min; in series [2] it was 0.95 ± 0.31 min; in series [3], 1.12 ± 0.56 min; in series [4], 17.6 ± 5.85 min. In addition, the responders at 20 mg/kg in series [5] (setting [8]) came to 100%; in series [5] (setting [9]) it was 90%; in series [5] (setting [10]), 90%; in series [5] (setting [11]), 90%; in series [5] (setting [12]) it was 80%; in series [5] (setting [13]), 70%. The responders at 20 mg/kg in series [5] (setting [14]) was determined as 70%; in series [7] (setting [15]), 100%; in series [7] (setting [16]) it was 90%; in series [7] (setting [17]), 90%; in series [7] (setting [18]) it was 90%; in series [7] (setting [19]) it was 90%. Moreover, the responders at 20 mg/kg in series [7] (setting [20]) and in series [7] (setting [21]) was 90% throughout. In series [6], this compound had a solubility at 30 min of more than 50 mg/mL.

Consider `CC[C@@H]([C@H](C)OC(=O)OCOC(=O)CCCCCOP(=O)([O-])[O-])n1ncn(-c2ccc(N3CCN(c4ccc(OC[C@@H]5CO[C@@](Cn6cncn6)(c6ccc(F)cc6F)C5)cc4)CC3)cc2)c1=O.[Na+].[Na+]` [ST0073], for which the half-life at 10 µM was determined as 16.2 ± 6.08 min in series [1], 0.92 ± 0.11 min in series [2], 0.75 ± 0.23 min in series [3] and 16 ± 8.96 min in series [4]. Besides, the responders at 20 mg/kg turned out to be 100% in series [5] (setting [8]); 90% in series [5] (setting [9]); 80% in series [5] (setting [10]); 80% in series [5] (setting [11]); 80% in series [5] (setting [12]); 70% in series [5] (setting [13]). Further, the responders at 20 mg/kg in series [5] (setting [14]) was 70%; in series [7] (setting [15]), 100%; in series [7] (setting [16]), 100%; in series [7] (setting [17]), 100%; in series [7] (setting [18]) it was 100%; in series [7] (setting [19]) it was 90%. Also, the responders at 20 mg/kg in series [7] (setting [20]) and in series [7] (setting [21]) was 90% throughout. Besides, in series [6], the solubility at 30 min was more than 50 mg/mL.

Regarding `CC[C@@H](C(C)OC(=O)OC(C)OC(=O)CCCOS(=O)(=O)[O-])n1ncn(-c2ccc(N3CCN(c4ccc(OC[C@@H]5CO[C@@](Cn6cncn6)(c6ccc(F)cc6F)C5)cc4)CC3)cc2)c1=O.[Na+]` (stereo partly shown) [ST0077], the half-life at 10 µM in series [1] came out at 21.3 ± 5.09 min; in series [2] it was 1.97 ± 1.29 min; in series [3], 1.55 ± 0.56 min; in series [4] it was 19.3 ± 5.65 min. Also, the responders at 20 mg/kg in series [5] (24 h, 20 mg/kg intragastric once daily for 5 days, day 1, read-out: survival rate of mice, day 1) amounted to 100%; in series [5] (48 h, 20 mg/kg intragastric once daily for 5 days, day 2, read-out: survival rate of mice, day 2) it was 90%; in series [5] (72 h, 20 mg/kg intragastric once daily for 5 days, day 3, read-out: survival rate of mice, day 3) it was 80%; in series [5] (96 h, 20 mg/kg intragastric once daily for 5 days, day 4, read-out: survival rate of mice, day 4), 80%; in series [5] (120 h, 20 mg/kg intragastric once daily for 5 days, day 5, read-out: survival rate of mice, day 5), 80%; in series [5] (144 h, 20 mg/kg intragastric once daily for 5 days, day 6, read-out: survival rate of mice, day 6) it was 70%. Moreover, the responders at 20 mg/kg is 70% in series [5] (168 h, 20 mg/kg intragastric once daily for 5 days, day 7, read-out: survival rate of mice, day 7); 100% in series [7] (24 h, 20 mg/kg tail vein once daily for 5 days, day 1, read-out: survival rate of mice, day 1); 100% in series [7] (48 h, 20 mg/kg tail vein once daily for 5 days, day 2, read-out: survival rate of mice, day 2); 100% in series [7] (72 h, 20 mg/kg tail vein once daily for 5 days, day 3, read-out: survival rate of mice, day 3); 100% in series [7] (96 h, 20 mg/kg tail vein once daily for 5 days, day 4, read-out: survival rate of mice, day 4); 90% in series [7] (120 h, 20 mg/kg tail vein once daily for 5 days, day 5, read-out: survival rate of mice, day 5). For the same compound, the responders at 20 mg/kg in series [7] (144 h, 20 mg/kg tail vein once daily for 5 days, day 6, read-out: survival rate of mice, day 6) amounted to 90%; in series [7] (168 h, 20 mg/kg tail vein once daily for 5 days, day 7, read-out: survival rate of mice, day 7), 90%. The compound further had a solubility at 30 min in series [6] of more than 50 mg/mL.

As for `CC[C@@H]([C@H](C)OC(=O)OC(C)OC(=O)CCCCCOP(=O)([O-])[O-])n1ncn(-c2ccc(N3CCN(c4ccc(OC[C@@H]5CO[C@@](Cn6cncn6)(c6ccc(F)cc6F)C5)cc4)CC3)cc2)c1=O.[Na+].[Na+]` (stereo partly shown) [ST0063], the half-life at 10 µM is 16.3 ± 2.12 min in series [1], 0.85 ± 0.45 min in series [2], 1.21 ± 0.75 min in series [3] and 19.4 ± 5.69 min in series [4]. In addition, the responders at 20 mg/kg in series [5] (setting [8]) was 90%; in series [5] (setting [9]) it was 90%; in series [5] (setting [10]), 80%; in series [5] (setting [11]) it was 80%; in series [5] (setting [12]) it was 80%; in series [5] (setting [13]) it was 80%. Besides, the responders at 20 mg/kg in series [5] (setting [14]) is 80%; in series [7] (setting [15]) it was 100%; in series [7] (setting [16]), 100%; in series [7] (setting [17]), 90%; in series [7] (setting [18]) it was 90%; in series [7] (setting [19]) it was 90%. Also, the responders at 20 mg/kg in series [7] (setting [20]) and in series [7] (setting [21]) was 90% throughout. In series [6], this compound returned a solubility at 30 min of more than 50 mg/mL.

A word on the solubility: it is the concentration that dissolves in the medium under given conditions.

Source of the values: patent publication US10517867B2, “Posaconazole derivative, pharmaceutical composition and use thereof” (priority 2016, dated 2019).
